Source: ChEMBL document CHEMBL2346657, “Synthesis of novel 2-amino-4-(5'-substituted 2'-phenyl-1H-indol-3'-yl)-6-aryl-4H-pyran-3-carbonitrile derivatives as antimicrobial and antioxidant agents” (2013)
Activity calls are given as the source filed them. The rule behind the calls is not given here.

What was measured:
Type in all cases: functional
Aspergillus niger [1] = assay: Antimicrobial activity against Aspergillus niger MTCC 281 at 1000 ug/ml after 72 hrs by cup plate method; conditions: MTCC 281, 72 h, read-out: IZ
Aspergillus terreus [2] = assay: Antimicrobial activity against Aspergillus terreus MTCC 1782 at 500 ug/ml after 72 hrs by cup plate method; conditions: MTCC 1782, 72 h, read-out: IZ
Aspergillus terreus [3] = assay: Antimicrobial activity against Aspergillus terreus MTCC 1782 at 750 ug/ml after 72 hrs by cup plate method; conditions: MTCC 1782, 72 h, read-out: IZ
Aspergillus flavus [4] = assay: Antimicrobial activity against Aspergillus flavus MTCC 1973 at 750 ug/ml after 72 hrs by cup plate method; conditions: MTCC 1973, 72 h, read-out: IZ
Pseudomonas aeruginosa [5] = assay: Antimicrobial activity against Pseudomonas aeruginosa MTCC 1688 at 1000 ug/ml after 24 hrs by cup plate method; conditions: MTCC 1688, 24 h, read-out: IZ
Aspergillus oryzae [6] = assay: Antimicrobial activity against Aspergillus oryzae MTCC 3567 at 500 ug/ml after 72 hrs by cup plate method; conditions: MTCC 3567, 72 h, read-out: IZ
Klebsiella pneumoniae [7] = assay: Antimicrobial activity against Klebsiella pneumoniae NCTC 13368 at 1000 ug/ml after 24 hrs by cup plate method; conditions: NCTC 13368, 24 h, read-out: IZ
Escherichia coli [8] = assay: Antimicrobial activity against Escherichia coli MTCC 723 at 750 ug/ml after 24 hrs by cup plate method; conditions: MTCC 723, 24 h, read-out: IZ
Klebsiella pneumoniae [9] = assay: Antimicrobial activity against Klebsiella pneumoniae NCTC 13368 at 500 ug/ml after 24 hrs by cup plate method; conditions: NCTC 13368, 24 h, read-out: IZ
Escherichia coli [10] = assay: Antimicrobial activity against Escherichia coli MTCC 723 at 500 ug/ml after 24 hrs by cup plate method; conditions: MTCC 723, 24 h, read-out: IZ
Klebsiella pneumoniae [11] = assay: Antimicrobial activity against Klebsiella pneumoniae NCTC 13368 at 750 ug/ml after 24 hrs by cup plate method; conditions: NCTC 13368, 24 h, read-out: IZ
Aspergillus flavus [12] = assay: Antimicrobial activity against Aspergillus flavus MTCC 1973 at 500 ug/ml after 72 hrs by cup plate method; conditions: MTCC 1973, 72 h, read-out: IZ
Aspergillus terreus [13] = assay: Antimicrobial activity against Aspergillus terreus MTCC 1782 at 1000 ug/ml after 72 hrs by cup plate method; conditions: MTCC 1782, 72 h, read-out: IZ
Aspergillus niger [14] = assay: Antimicrobial activity against Aspergillus niger MTCC 281 at 500 ug/ml after 72 hrs by cup plate method; conditions: MTCC 281, 72 h, read-out: IZ
Staphylococcus aureus [15] = assay: Antimicrobial activity against Staphylococcus aureus ATCC 29513 at 750 ug/ml after 24 hrs by cup plate method; conditions: ATCC 29513, 24 h, read-out: IZ
Staphylococcus aureus [16] = assay: Antimicrobial activity against Staphylococcus aureus ATCC 29513 at 500 ug/ml after 24 hrs by cup plate method; conditions: ATCC 29513, 24 h, read-out: IZ
Pseudomonas aeruginosa [17] = assay: Antimicrobial activity against Pseudomonas aeruginosa MTCC 1688 at 750 ug/ml after 24 hrs by cup plate method; conditions: MTCC 1688, 24 h, read-out: IZ
Aspergillus oryzae [18] = assay: Antimicrobial activity against Aspergillus oryzae MTCC 3567 at 750 ug/ml after 72 hrs by cup plate method; conditions: MTCC 3567, 72 h, read-out: IZ
[19] = Antioxidant activity assessed as metal chelating activity by measuring inhibition of ferrozine-Fe2+ complex formation at 25 to 100 ug/ml
Aspergillus flavus [20] = assay: Antimicrobial activity against Aspergillus flavus MTCC 1973 at 1000 ug/ml after 72 hrs by cup plate method; conditions: MTCC 1973, 72 h, read-out: IZ
Escherichia coli [21] = assay: Antimicrobial activity against Escherichia coli MTCC 723 at 1000 ug/ml after 24 hrs by cup plate method; conditions: MTCC 723, 24 h, read-out: IZ
Aspergillus oryzae [22] = assay: Antimicrobial activity against Aspergillus oryzae MTCC 3567 at 1000 ug/ml after 72 hrs by cup plate method; conditions: MTCC 3567, 72 h, read-out: IZ
Staphylococcus aureus [23] = assay: Antimicrobial activity against Staphylococcus aureus ATCC 29513 at 1000 ug/ml after 24 hrs by cup plate method; conditions: ATCC 29513, 24 h, read-out: IZ
Aspergillus niger [24] = assay: Antimicrobial activity against Aspergillus niger MTCC 281 at 750 ug/ml after 72 hrs by cup plate method; conditions: MTCC 281, 72 h, read-out: IZ
Pseudomonas aeruginosa [25] = assay: Antimicrobial activity against Pseudomonas aeruginosa MTCC 1688 at 500 ug/ml after 24 hrs by cup plate method; conditions: MTCC 1688, 24 h, read-out: IZ

Structure (SMILES)	zone of inhibition at 1000 µg/mL (Aspergillus niger [1]) [mm]	zone of inhibition at 500 µg/mL (Aspergillus terreus [2]) [mm]	zone of inhibition at 750 µg/mL (Aspergillus terreus [3]) [mm]	zone of inhibition at 750 µg/mL (Aspergillus flavus [4]) [mm]	zone of inhibition at 1000 µg/mL (Pseudomonas aeruginosa [5]) [mm]	zone of inhibition at 500 µg/mL (Aspergillus oryzae [6]) [mm]	zone of inhibition at 1000 µg/mL (Klebsiella pneumoniae [7]) [mm]	zone of inhibition at 750 µg/mL (Escherichia coli [8]) [mm]	zone of inhibition at 500 µg/mL (Klebsiella pneumoniae [9]) [mm]	zone of inhibition at 500 µg/mL (Escherichia coli [10]) [mm]	zone of inhibition at 750 µg/mL (Klebsiella pneumoniae [11]) [mm]	zone of inhibition at 500 µg/mL (Aspergillus flavus [12]) [mm]	zone of inhibition at 1000 µg/mL (Aspergillus terreus [13]) [mm]	zone of inhibition at 500 µg/mL (Aspergillus niger [14]) [mm]	zone of inhibition at 750 µg/mL (Staphylococcus aureus [15]) [mm]	zone of inhibition at 500 µg/mL (Staphylococcus aureus [16]) [mm]	zone of inhibition at 750 µg/mL (Pseudomonas aeruginosa [17]) [mm]	zone of inhibition at 750 µg/mL (Aspergillus oryzae [18]) [mm]	Activity [19]	zone of inhibition at 1000 µg/mL (Aspergillus flavus [20]) [mm]	further results
Cc1ccc2[nH]c(-c3ccccc3)c(C3C=C(c4ccc(Cl)cc4)Oc4nc[nH]c(=O)c43)c2c1 (stereo not given)	11	6	6	5	4	8	5	8	5	8	5	5	6	10	10	10	4	8	Active	5	zone of inhibition at 1000 µg/mL (Escherichia coli [21]): 8 mm; zone of inhibition at 1000 µg/mL (Aspergillus oryzae [22]): 8 mm; zone of inhibition at 1000 µg/mL (Staphylococcus aureus [23]): 10 mm; zone of inhibition at 750 µg/mL (Aspergillus niger [24]): 10 mm; zone of inhibition at 500 µg/mL (Pseudomonas aeruginosa [25]): 4 mm
Cc1ccc(C2=CC(c3c(-c4ccccc4)[nH]c4ccc(Cl)cc34)c3c(N)nc(=S)[nH]c3O2)cc1 (stereo not given)	10	9	8	3	10	3	9	9	10	10	10	3	8	10	3	6	10	2	Active	3	zone of inhibition at 1000 µg/mL (Escherichia coli [21]): 9 mm; zone of inhibition at 1000 µg/mL (Aspergillus oryzae [22]): 2 mm; zone of inhibition at 1000 µg/mL (Staphylococcus aureus [23]): 2 mm; zone of inhibition at 750 µg/mL (Aspergillus niger [24]): 10 mm; zone of inhibition at 500 µg/mL (Pseudomonas aeruginosa [25]): 10 mm
Cc1ccc(C2=CC(c3c(-c4ccccc4)[nH]c4ccccc34)c3c(nc4oc(=O)c(C#N)c(N)c4c3N)O2)cc1 (stereo not given)	8	10	5	0	9	6	10	8	12	9	11	0	3	2	5	8	5	6	Active	0	zone of inhibition at 1000 µg/mL (Escherichia coli [21]): 8 mm; zone of inhibition at 1000 µg/mL (Aspergillus oryzae [22]): 6 mm; zone of inhibition at 1000 µg/mL (Staphylococcus aureus [23]): 3 mm; zone of inhibition at 750 µg/mL (Aspergillus niger [24]): 2 mm; zone of inhibition at 500 µg/mL (Pseudomonas aeruginosa [25]): 5 mm
Cc1ccc(C2=CC(c3c(-c4ccccc4)[nH]c4ccc(Cl)cc34)c3c(N)nc(=O)[nH]c3O2)cc1 (stereo not given)	10	8	8	12	8	12	8	8	8	8	8	12	8	10	0	0	9	13	Active	13	zone of inhibition at 1000 µg/mL (Escherichia coli [21]): 10 mm; zone of inhibition at 1000 µg/mL (Aspergillus oryzae [22]): 13 mm; zone of inhibition at 1000 µg/mL (Staphylococcus aureus [23]): 0 mm; zone of inhibition at 750 µg/mL (Aspergillus niger [24]): 10 mm; zone of inhibition at 500 µg/mL (Pseudomonas aeruginosa [25]): 10 mm
Nc1nc(=S)[nH]c2c1C(c1c(-c3ccccc3)[nH]c3ccc(Cl)cc13)C=C(c1ccccc1)O2 (stereo not given)	10	9	8	8	5	10	10	8	10	10	10	8	8	5	9	9	5	10	Active	8	zone of inhibition at 1000 µg/mL (Escherichia coli [21]): 8 mm; zone of inhibition at 1000 µg/mL (Aspergillus oryzae [22]): 0 mm; zone of inhibition at 1000 µg/mL (Staphylococcus aureus [23]): 9 mm; zone of inhibition at 750 µg/mL (Aspergillus niger [24]): 5 mm; zone of inhibition at 500 µg/mL (Pseudomonas aeruginosa [25]): 6 mm
Nc1nc(=O)[nH]c2c1C(c1c(-c3ccccc3)[nH]c3ccccc13)C=C(c1ccc(Cl)cc1)O2 (stereo not given)	5	6	4	12	13	6	8	13	11	13	10	12	4	5	14	14	12	5	Active	12	zone of inhibition at 1000 µg/mL (Escherichia coli [21]): 14 mm; zone of inhibition at 1000 µg/mL (Aspergillus oryzae [22]): 3 mm; zone of inhibition at 1000 µg/mL (Staphylococcus aureus [23]): 14 mm; zone of inhibition at 750 µg/mL (Aspergillus niger [24]): 5 mm; zone of inhibition at 500 µg/mL (Pseudomonas aeruginosa [25]): 12 mm
Cc1ccc2[nH]c(-c3ccccc3)c(C3C=C(c4ccc(Cl)cc4)OC(N)=C3C#N)c2c1 (stereo not given)	10	12	13	10	2	10	8	10	9	10	9	10	13	10	5	6	5	10	Active	8	zone of inhibition at 1000 µg/mL (Escherichia coli [21]): 10 mm; zone of inhibition at 1000 µg/mL (Aspergillus oryzae [22]): 10 mm; zone of inhibition at 1000 µg/mL (Staphylococcus aureus [23]): 2 mm; zone of inhibition at 750 µg/mL (Aspergillus niger [24]): 10 mm; zone of inhibition at 500 µg/mL (Pseudomonas aeruginosa [25]): 6 mm
Nc1nc(=S)[nH]c2c1C(c1c(-c3ccccc3)[nH]c3ccccc13)C=C(c1ccccc1)O2 (stereo not given)	14	5	5	9	2	9	8	10	9	10	8	9	5	12	2	2	2	8	Active	9	zone of inhibition at 1000 µg/mL (Escherichia coli [21]): 11 mm; zone of inhibition at 1000 µg/mL (Aspergillus oryzae [22]): 8 mm; zone of inhibition at 1000 µg/mL (Staphylococcus aureus [23]): 0 mm; zone of inhibition at 750 µg/mL (Aspergillus niger [24]): 12 mm; zone of inhibition at 500 µg/mL (Pseudomonas aeruginosa [25]): 2 mm
